Experimental data taken from patent US12691070B2, “Cationic lipids and preparation method thereof” (RiboX Therapeutics HK Limited, priority 2023, dated 2026).

Tests used:
[1] = LNP size and polydispersity index (PDI) by dynamic light scattering; assay type: physicochemical; conditions: for Size: in nm (unit assumed)
Procedure, shortened: (§1)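 LNPs of ionizable lipid/DSPC/cholesterol/DMG-PEG 2000 (50:10:38.5:1.5) made by microfluidic mixing of luciferase circRNA or mRNA in pH 4.5 acetate with lipids in ethanol (3:1, 12 ml/min), ionizable lipid:nucleotide 15 or 6, then dialyzed against PBS. Size, PDI (DLS) and zeta potential on Zetasizer; encapsulation by Ribogreen ± Triton X-100.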

[2] = LNP zeta potential (Zetasizer); assay type: physicochemical
Procedure, shortened: as §1

[3] = RNA encapsulation efficacy by Quant-IT Ribogreen kit; assay type: physicochemical; conditions: for Encapsulation Efficiency %: LNP with cirRNA (SEQ ID NO: 1); for Encapsulation Efficiency: LNP with mRNA (SEQ ID NO: 2)
Procedure, shortened: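 Ribogreen read-out: encapsulation = 100% − (signal of intact RNA-LNPs / signal with Triton X-100). Particles: ionizable lipid:DSPC:Chol:DMG-PEG2000 50:10:38.5:1.5, ionizable lipid:ribonucleotide 15 or 6, final lipid 1.5–6 mM, PBS-dialyzed.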

Hep G2 cells [4] = experiment: In vitro expression of firefly-luciferase, Hep G2; assay type: cell-based
Procedure, shortened: (§2)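 Both cell lines receive RNA-LNPs carrying firefly-luciferase RNA at 100 ng/mL. Lysis follows washing at 72 h post-transfection, and luciferase activity is then quantified on a luminometer using a commercial luciferase assay reagent.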

RAW 264.7 cells [5] = experiment: In vitro expression of firefly-luciferase, RAW 264.7; assay type: cell-based
Procedure, shortened: as §2

Hep G2 cells [6] = experiment: In vitro toxicity (CellTiter-Glo cell viability), Hep G2; assay type: cell-based;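 further: percent of untreated cells luminescence signal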
Procedure, shortened: (§3)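 Cells were transfected with RNA-LNPs at 1 μg/mL and, 72 hours later, viability was measured by CellTiter-Glo luminescence. Values are cell viability calculated from the luminescence signal.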

RAW 264.7 cells [7] = experiment: In vitro toxicity (CellTiter-Glo cell viability), RAW 264.7; assay type: cell-based;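 further: percent of untreated cells luminescence signal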
Procedure, shortened: as §3

BALB/C mice [8] = experiment: In vivo expression, whole-body luminescence (IVIS)
Protocol: 6-8 week old, female BALB/C mice were injected with 0.05 mg*kg-1 of RNA-LNPs encoding for firefly-luciferase by intravenous injection. At 6 hours post injection, animals were intraperitoneally injected with 15 mg/ml of Luciferin substrate and whole-body luminescence was determined by a bioluminescent in vivo imaging system (IVIS).

MCP-I = MCP-I cytokine elevation in serum; assay type: in vivo; conditions: cirRNA (SEQ ID NO: 1) LNPs, mice
Protocol: 6-8 week old, female BALB/C mice were injected with 0.5 mg*kg-1 of RNA LNPs by intravenous injection. At 2 and 24 hours post injection, animals were bled and sera concentrations of MCP-I were determined by an immunoassay (Luminex).

[9] = system: Alanine Aminotransferase (ALT); experiment: Liver enzyme elevation in serum, ALT; assay type: in vivo; conditions: cirRNA (SEQ ID NO: 1) LNPs, BALB/C mice, intravenous 0.5 MPK
Protocol: (§4) 6-8 week old, female BALB/C mice were injected with 0.5 mg*kg-1 of RNA LNPs by intravenous injection. At 2 and 24 hours post injection, animals were bled and sera concentrations of Alanine Aminotransferase (ALT) and Aspartate Aminotransferase (AST) were determined by a blood chemistry analyzer.

[10] = system: Aspartate Aminotransferase (AST); experiment: Liver enzyme elevation in serum, AST; assay type: in vivo; conditions: cirRNA (SEQ ID NO: 1) LNPs, BALB/C mice, intravenous 0.5 MPK
Protocol: as §4

BALB/C mice [11] = experiment: Local tolerance determination by footpad injection; assay type: in vivo; conditions: cirRNA (SEQ ID NO: 1) LNP, 0.175 mg*kg-1 subcutaneous into the footpad, 24 hours post minus prior
Protocol: 6-8 week old, female BALB/C mice were injected with 0.175 mg*kg-1 RNA LNPs by subcutaneous injection into the footpad. Prior to, and 24 hours post injections, injected footpad thickness was determined by a caliper.

[12] = cirRNA (SEQ ID NO: 1) LNPs, firefly-luciferase luminescence, Hep G2 cells
[13] = mRNA (SEQ ID NO: 2) LNP, 100 ng/mL, 72 hours post transfection, luciferase activity
[14] = cirRNA (SEQ ID NO: 1) LNPs, firefly-luciferase luminescence, RAW 264.7 cells
[15] = cirRNA (SEQ ID NO: 1) LNPs, Hep G2 cells
[16] = mRNA (SEQ ID NO: 2) LNP, 1 μg/mL, 72 hours post transfection
[17] = cirRNA (SEQ ID NO: 1) LNPs, RAW 264.7 cells
[18] = cirRNA (SEQ ID NO: 1) LNPs, BALB/C mice
[19] = mRNA (SEQ ID NO: 2) LNP, 0.05 mg*kg-1 intravenous, 6 hours post injection

PDI ([1]; LNP with cirRNA (SEQ ID NO: 1)) | Size ([1]; LNP with cirRNA (SEQ ID NO: 1)) | PDI ([1]; LNP with mRNA (SEQ ID NO: 2)) | Size ([1]; LNP with mRNA (SEQ ID NO: 2)) | Zeta (mV) ([2]; LNP with cirRNA (SEQ ID NO: 1)) | Zeta (mV) ([2]; LNP with mRNA (SEQ ID NO: 2)) | Encapsulation Efficiency % [3] | Encapsulation Efficiency [3] | MCP-I in Sera 2 hours After 0.5 MPK Injection (MCP-I) | MCP-I in Sera 24 hours After 0.5 MPK Injection (MCP-I) | SMILES | In vitro Expression HepG2 (Hep G2 cells [4]; [12]) | In vitro Expression HepG2 (Hep G2 cells [4]; [13]) | In vitro Expression RAW (RAW 264.7 cells [5]; [14]) | In vitro Expression RAW (RAW 264.7 cells [5]; [13]) | In vitro Viability HepG2 (Hep G2 cells [6]; [15]) | In vitro Viability HepG2 (Hep G2 cells [6]; [16]) | In vitro Viability RAW (RAW 264.7 cells [7]; [17]) | In vitro Viability RAW (RAW 264.7 cells [7]; [16]) | In vivo Expression (Whole Body) (BALB/C mice [8]; [18]) | In vivo Expression (Whole Body) (BALB/C mice [8]; [19]) | other results
0.1705 | 99.16 | 0.3512 | 178.8 | −0.1951 mV | −4.142 mV | 95% | 66.39% | 3172.67 pg/mL | 1133.74 pg/mL | CCCCCCCCC(CCCCCCCC)OC(=O)CCCCCCCN(CCCCCCCCOC(=O)C(CCCCCC)CCCCCCCC)CCCOC(=O)NCCN1CCCCC1 (stereo not drawn) [Lipid 351] | 1.87E+06 | 1.00E+07 | 6.44E+05 | 3.41E+06 | 96% | 87% | 98% | 94% | 1.35E+08 | 1.71E+08 | ALT in Sera (IU/L) 2 hours After 0.5 MPK Injection [9]: 74.33 IU/L; ALT in Sera (IU/L) 24 hours After 0.5 MPK Injection [9]: 149.33 IU/L; AST in Sera (IU/L) 2 hours After 0.5 MPK Injection [10]: 232.67 IU/L; AST in Sera (IU/L) 24 hours After 0.5 MPK Injection [10]: 389.33 IU/L; Footpad Thickness (24 h−0 h, mm) (BALB/C mice [11]): 0.68 mm
0.1505 | 98.03 | 0.2144 | 128.6 | −2.263 mV | −0.3781 mV | 96% | 71.30% | 5469.33 pg/mL | 1348.89 pg/mL | CCCCCCCCC(CCCCCCCC)OC(=O)CCCCCCCN(CCCCCCCCOC(=O)C(CCCCCC)CCCCCCCC)CCCOC(=O)NCCN1CCCCCC1 (stereo not drawn) [Lipid 354] | 1.63E+06 | 7.47E+06 | 4.53E+05 | 1.10E+06 | 119% | 104% | 45% | 65% | 6.08E+08 | 7.55E+08 | ALT in Sera (IU/L) 2 hours After 0.5 MPK Injection [9]: 97.67 IU/L; ALT in Sera (IU/L) 24 hours After 0.5 MPK Injection [9]: 192.50 IU/L; AST in Sera (IU/L) 2 hours After 0.5 MPK Injection [10]: 287.33 IU/L; AST in Sera (IU/L) 24 hours After 0.5 MPK Injection [10]: 411.00 IU/L; Footpad Thickness (24 h−0 h, mm) (BALB/C mice [11]): 0.80 mm
0.1084 | 93.14 | 0.1166 | 120.9 | 4.427 mV | 10 mV | 97% | 92.99% | 6463.00 pg/mL | 1338.00 pg/mL | CCCCCCCCCCC(CCCCCCCC)COC(=O)CCCCCN(CCCCCC(=O)OCC(CCCCCCCC)CCCCCCCCCC)CCCOC(=O)NCCN1CCCC1 (stereo not drawn) [Lipid 369] | 1.04E+06 | 7.28E+07 | 1.84E+05 | 2.18E+07 | 78% | 94% | 61% | 90% | 1.30E+07 | 6.54E+08 | ALT in Sera (IU/L) 2 hours After 0.5 MPK Injection [9]: 158.00 IU/L; ALT in Sera (IU/L) 24 hours After 0.5 MPK Injection [9]: 121.00 IU/L; AST in Sera (IU/L) 2 hours After 0.5 MPK Injection [10]: 364.00 IU/L; AST in Sera (IU/L) 24 hours After 0.5 MPK Injection [10]: 290.00 IU/L; Footpad Thickness (24 h−0 h, mm) (BALB/C mice [11]): 0.57 mm
